Common to all, as to assay: relative viability (nuclei count vs DMSO), 5 days (fraction); higher = more cells survive
Compound in assay [1]: Nc1nc2[nH]cc(CCc3ccc(C(=O)N[C@@H](CCC(=O)O)C(=O)O)cc3)c2c(=O)[nH]1 [Pemetrexed] + C[C@@H](Oc1cc(-c2cnn(C3CCNCC3)c2)cnc1N)c1c(Cl)ccc(F)c1Cl [Crizotinib] (partner 1 µM)
In a few lines: (§1)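 Nuclei were stained with Hoechst during a one-step fixation (final 0.05% Triton X-100, 1% formaldehyde, 1 ug/ml Hoechst) carried out 5 days after dosing, then counted on 4× images. The cells, lung cancer lines in 1536-well plates, had been dosed by pin tool the day after seeding with one drug alone or a fixed anchor-drug dose plus five library-drug doses (not always all listed) in √10 steps. Relative viability is the nuclei count in treated wells divided by that in vehicle wells, and each value is the median of duplicate plates.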

Compound in assay [2]: CC[C@H](Nc1ncnc2[nH]cnc12)c1nc2cccc(F)c2c(=O)n1-c1ccccc1 [Idelalisib] + CC1(C)CCC(c2ccc(Cl)cc2)=C(CN2CCN(c3ccc(C(=O)NS(=O)(=O)c4ccc(N[C@H](CCN5CCOCC5)CSc5ccccc5)c(S(=O)(=O)C(F)(F)F)c4)cc3)CC2)C1 [Navitoclax] (partner 0.5 µM)
In a few lines:
as §1

Compound in assay [3]: CC[C@H](Nc1ncnc2[nH]cnc12)c1nc2cccc(F)c2c(=O)n1-c1ccccc1 [Idelalisib] + CC(=O)c1c(C)c2cnc(Nc3ccc(N4CCNCC4)cn3)nc2n(C2CCCC2)c1=O [Palbociclib] (partner 0.5 µM)
The method in brief:
as §1

Compound in assay [4]: CC[C@H](Nc1ncnc2[nH]cnc12)c1nc2cccc(F)c2c(=O)n1-c1ccccc1 [Idelalisib] + COc1cccc2cc(-c3nc([C@H]4CC[C@H](C(=O)O)CC4)n4ncnc(N)c34)[nH]c12 [OSI-027] (partner 0.5 µM)
In a few lines:
as §1

For the cell line UMC-11, the relative viability was determined as 0.603 in assay [1] (first compound 0.002 µM); 0.635 in assay [1] (first compound 0.006325 µM); 0.666 in assay [1] (first compound 0.02 µM); 0.715 in assay [1] (first compound 0.06325 µM); 0.566 in assay [1] (first compound 0.2 µM); 0.366 in assay [2] (first compound 0.04 µM). Besides, the relative viability in assay [2] (first compound 0.1265 µM) was found to be 0.326; in assay [2] (first compound 0.4 µM), 0.274; in assay [2] (first compound 1.265 µM), 0.291; in assay [2] (first compound 4 µM), 0.336; in assay [3] (first compound 0.04 µM), 0.335; in assay [3] (first compound 0.1265 µM) it was 0.33. Moreover, the relative viability turned out to be 0.298 in assay [3] (first compound 0.4 µM); 0.298 in assay [3] (first compound 1.265 µM); 0.261 in assay [3] (first compound 4 µM); 0.429 in assay [4] (first compound 0.04 µM); 0.491 in assay [4] (first compound 0.1265 µM); 0.542 in assay [4] (first compound 0.4 µM). For the same cell line, the relative viability in assay [4] (first compound 1.265 µM) is 0.513; in assay [4] (first compound 4 µM), 0.42.

The values are drawn from the supplement of paper PMC10307832.
